Reference: PubChem BioAssay AID720699 (NMMLSC, 2013)

Experiment: incubation effect on Rab7 inhibitor curves, late-stage follow-up, mechanism study, biochemical, Rab7 wildtype, bead flow cytometry, two incubation protocols (AID 720699)
Conditions: Rab7 beads, Bodipy-FL-GTP binding

EC50 (protocol A)	EC50 (protocol B)	SMILES
219 nM	172 nM	CC1(C)Cc2c(sc(NC(=S)NC(=O)c3ccc(N=[N+]=[N-])cc3)c2C(=O)O)CO1
1260 nM	1220 nM	CC1(C)Cc2c(sc(NC(=S)NC(=O)c3cccc(N=[N+]=[N-])c3)c2C(=O)O)CO1
